According to the NIST ThermoML archive (doi:10.1021/je060271a):
Where “and” joins values, the source holds several entries; their conditions need not be identical. Identical values can stand only once. ± gives the expanded uncertainty stated by the source.

Conditions: 323.15 K, Liquid, Vibrating tube method

CCCCCCCC(=O)OCC(COC(=O)CCCCCCC)(COC(=O)CCCCCCC)COC(=O)CCCCCCC [pentaerythritol tetraoctanoate]
Conditions | mass density
3786.1 kPa | 943.3 ± 1.2 kg/m3
3800.8 kPa | 943.3 ± 1.2 kg/m3
3818.1 kPa | 943.3 ± 1.2 kg/m3
3832.3 kPa | 943.3 ± 1.2 kg/m3
3846.9 kPa | 943.3 ± 1.2 kg/m3
3894.9 kPa | 943.3 ± 1.2 kg/m3
4078 kPa | 943.4 ± 1.2 kg/m3
4095.3 kPa | 943.5 ± 1.2 kg/m3
4116.3 kPa | 943.5 ± 1.2 kg/m3
4133.4 kPa | 943.5 ± 1.2 kg/m3
4151.5 kPa | 943.4 ± 1.2 kg/m3
4169.5 kPa | 943.5 ± 1.2 kg/m3
4190.6 kPa | 943.5 ± 1.2 kg/m3
4208.3 kPa | 943.5 ± 1.2 kg/m3
4239.4 kPa | 943.7 ± 1.2 kg/m3
4240.5 kPa | 943.6 ± 1.2 kg/m3
4244.3 kPa | 943.6 ± 1.2 kg/m3
4247.1 kPa | 943.6 ± 1.2 kg/m3
4247.4 kPa | 943.5 ± 1.2 kg/m3
4247.6 kPa | 943.5 ± 1.2 kg/m3
4248.6 kPa | 943.5 ± 1.2 kg/m3
4249.3 kPa | 943.5 ± 1.2 kg/m3 and 943.6 ± 1.2 kg/m3
4250.7 kPa | 943.7 ± 1.2 kg/m3
4258.1 kPa | 943.6 ± 1.2 kg/m3
4267.5 kPa | 943.7 ± 1.2 kg/m3
4277.9 kPa | 943.5 ± 1.2 kg/m3
4287.4 kPa | 943.5 ± 1.2 kg/m3
4298 kPa | 943.6 ± 1.2 kg/m3
4315.8 kPa | 943.6 ± 1.2 kg/m3
4334.7 kPa | 943.5 ± 1.2 kg/m3
4353.7 kPa | 943.6 ± 1.2 kg/m3
4376.6 kPa | 943.5 ± 1.2 kg/m3
4396.7 kPa | 943.6 ± 1.2 kg/m3
4416.4 kPa | 943.8 ± 1.2 kg/m3
4436.5 kPa | 943.7 ± 1.2 kg/m3
4522.7 kPa | 943.7 ± 1.2 kg/m3
4548.7 kPa | 943.7 ± 1.2 kg/m3
4571 kPa | 943.8 ± 1.2 kg/m3
4604.4 kPa | 943.8 ± 1.2 kg/m3
4618.8 kPa | 943.7 ± 1.2 kg/m3
4647.7 kPa | 943.8 ± 1.2 kg/m3
4665.2 kPa | 943.8 ± 1.2 kg/m3
4679.7 kPa | 943.8 ± 1.2 kg/m3
4709.7 kPa | 943.8 ± 1.2 kg/m3
4727.3 kPa | 943.9 ± 1.2 kg/m3
4891.1 kPa | 943.9 ± 1.2 kg/m3
4907.3 kPa | 944 ± 1.2 kg/m3
4923.3 kPa | 944 ± 1.2 kg/m3
4942.8 kPa | 944.1 ± 1.2 kg/m3
4959.8 kPa | 943.9 ± 1.2 kg/m3
4976.6 kPa | 944 ± 1.2 kg/m3
4996.1 kPa | 944 ± 1.2 kg/m3
5013.6 kPa | 944 ± 1.2 kg/m3
5030.7 kPa | 944 ± 1.2 kg/m3
5047.7 kPa | 944.1 ± 1.2 kg/m3
5068.6 kPa | 944.1 ± 1.2 kg/m3
5086.9 kPa | 944.1 ± 1.2 kg/m3
5104.6 kPa | 944.2 ± 1.2 kg/m3
5218.8 kPa | 944.1 ± 1.2 kg/m3
5237.3 kPa | 944.2 ± 1.2 kg/m3
5255.9 kPa | 944.1 ± 1.2 kg/m3
5277.4 kPa | 944 ± 1.2 kg/m3
5296.3 kPa | 944.3 ± 1.2 kg/m3
5316.3 kPa | 944.2 ± 1.2 kg/m3
5355 kPa | 944.3 ± 1.2 kg/m3
5378.7 kPa | 944.3 ± 1.2 kg/m3
5681.4 kPa | 944.5 ± 1.2 kg/m3
5729.8 kPa | 944.6 ± 1.2 kg/m3
5752.1 kPa | 944.5 ± 1.2 kg/m3
5847.4 kPa | 944.5 ± 1.2 kg/m3
5898.9 kPa | 944.7 ± 1.2 kg/m3
5922.8 kPa | 944.6 ± 1.2 kg/m3
5946.5 kPa | 944.7 ± 1.2 kg/m3
5970.5 kPa | 944.6 ± 1.2 kg/m3
5999.4 kPa | 944.7 ± 1.2 kg/m3
6024.1 kPa | 944.7 ± 1.2 kg/m3
6049 kPa | 944.6 ± 1.2 kg/m3
6104.5 kPa | 944.9 ± 1.2 kg/m3
6129.2 kPa | 944.8 ± 1.2 kg/m3
6154.4 kPa | 944.8 ± 1.2 kg/m3
6185.7 kPa | 944.9 ± 1.2 kg/m3
6211.6 kPa | 944.7 ± 1.2 kg/m3
6413.9 kPa | 945 ± 1.2 kg/m3
6442.7 kPa | 945.1 ± 1.2 kg/m3
6473 kPa | 945 ± 1.2 kg/m3
6509.3 kPa | 944.9 ± 1.2 kg/m3
6534.3 kPa | 945 ± 1.2 kg/m3
6561.1 kPa | 945 ± 1.2 kg/m3
6584.4 kPa | 945 ± 1.2 kg/m3
6606.7 kPa | 945 ± 1.2 kg/m3
6623 kPa | 945.2 ± 1.2 kg/m3
6640.9 kPa | 945.1 ± 1.2 kg/m3
6655.8 kPa | 945.2 ± 1.2 kg/m3
6670.8 kPa | 945.1 ± 1.2 kg/m3
6686 kPa | 945.1 ± 1.2 kg/m3
6704.2 kPa | 945 ± 1.2 kg/m3
6719.4 kPa | 945.2 ± 1.2 kg/m3
6735.1 kPa | 945.2 ± 1.2 kg/m3
6749.8 kPa | 945.1 ± 1.2 kg/m3
6768.8 kPa | 945.2 ± 1.2 kg/m3
6784.3 kPa | 945.2 ± 1.2 kg/m3
6800.4 kPa | 945.2 ± 1.2 kg/m3
6817 kPa | 945.2 ± 1.2 kg/m3
6835.8 kPa | 945.3 ± 1.2 kg/m3
6851.9 kPa | 945.3 ± 1.2 kg/m3
6867.4 kPa | 945.1 ± 1.2 kg/m3
6883.1 kPa | 945.3 ± 1.2 kg/m3
6902.5 kPa | 945.3 ± 1.2 kg/m3
6918.5 kPa | 945.3 ± 1.2 kg/m3
6935.1 kPa | 945.2 ± 1.2 kg/m3
6954.5 kPa | 945.3 ± 1.2 kg/m3
6971.2 kPa | 945.4 ± 1.2 kg/m3
6987.8 kPa | 945.3 ± 1.2 kg/m3
7004.7 kPa | 945.4 ± 1.2 kg/m3
7025.5 kPa | 945.3 ± 1.2 kg/m3
7043.2 kPa | 945.5 ± 1.2 kg/m3
7059.8 kPa | 945.4 ± 1.2 kg/m3
7076.5 kPa | 945.4 ± 1.2 kg/m3
7096.9 kPa | 945.4 ± 1.2 kg/m3
7113.8 kPa | 945.4 ± 1.2 kg/m3
7131.3 kPa | 945.5 ± 1.2 kg/m3
7148.4 kPa | 945.5 ± 1.2 kg/m3
7169.6 kPa | 945.5 ± 1.2 kg/m3
7187.1 kPa | 945.5 ± 1.2 kg/m3
7204 kPa | 945.6 ± 1.2 kg/m3
7225.1 kPa | 945.5 ± 1.2 kg/m3
7243.2 kPa | 945.4 ± 1.2 kg/m3
7262.9 kPa | 945.5 ± 1.2 kg/m3
7281.3 kPa | 945.5 ± 1.2 kg/m3
7299.6 kPa | 945.5 ± 1.2 kg/m3
7320.9 kPa | 945.6 ± 1.2 kg/m3
7338.5 kPa | 945.7 ± 1.2 kg/m3
7357.3 kPa | 945.6 ± 1.2 kg/m3
7379.6 kPa | 945.5 ± 1.2 kg/m3
7397.7 kPa | 945.7 ± 1.2 kg/m3
7416.4 kPa | 945.6 ± 1.2 kg/m3
7435.3 kPa | 945.6 ± 1.2 kg/m3
7457.8 kPa | 945.7 ± 1.2 kg/m3
7476.9 kPa | 945.7 ± 1.2 kg/m3
7496.1 kPa | 945.6 ± 1.2 kg/m3
7515.6 kPa | 945.7 ± 1.2 kg/m3
7538.6 kPa | 945.7 ± 1.2 kg/m3
7558.1 kPa | 945.7 ± 1.2 kg/m3
7577.6 kPa | 945.6 ± 1.2 kg/m3
7601.3 kPa | 945.7 ± 1.2 kg/m3
7621.1 kPa | 945.8 ± 1.2 kg/m3
7640.6 kPa | 945.7 ± 1.2 kg/m3
7660.5 kPa | 945.8 ± 1.2 kg/m3
